Structures can show the parent of a compound that is named as a salt.
Columns and labels:
[1] = system: SPF male rats, OFA strain; experiment: Anti-inflammatory activity: paw swelling after subcutaneous plantar injection of carraghenine, oral administration; type: in vivo; conditions: for inhibition in vivo at 32 mg/kg: 32 mg/kg oral; for ED50: read-out: ED50 (50% effective dose), anti-inflammatory; for inhibition in vivo at 512 mg/kg: 512 mg/kg oral
Protocol: Anti-inflammatory activity
The products to be tested are administered orally to batches of 12 SPF male rats, OFA strain, weighing 120-130 g, 2 hours and 30 minutes (1/2 dose each time) before the subcutaneous plantar injection of 0.05 ml of a 1% strength solution of carraghenine. The volume of the back paw which received the phlogogenic agent is measured at regular intervals. The 50% effective dose is calculated at the moment of greatest swelling of the controls.
The results are given in Tables I to IV below, in which the percentage reduction in the inflammation is noted.

[2] = system: male mice (SPF1, OF1 strain); experiment: Analgesic activity: inhibition of pain reactions (abdominal twistings) after intraperitoneal phenylbenzoquinone, oral administration; type: in vivo; conditions: for inhibition in vivo at 32 mg/kg / inhibition in vivo at 64 mg/kg / inhibition in vivo at 128 mg/kg / inhibition in vivo at 256 mg/kg / ED50 / inhibition in vivo at 2 mg/kg / inhibition in vivo at 4 mg/kg / inhibition in vivo at 8 mg/kg / inhibition in vivo at 16 mg/kg / inhibition in vivo at 512 mg/kg: Mus musculus, po; for inhibition in vivo at 32 mg/kg / inhibition in vivo at 64 mg/kg / inhibition in vivo at 128 mg/kg / inhibition in vivo at 256 mg/kg / inhibition in vivo at 2 mg/kg / inhibition in vivo at 4 mg/kg / inhibition in vivo at 8 mg/kg / inhibition in vivo at 16 mg/kg / inhibition in vivo at 512 mg/kg: read-out: percentage inhibition of pain reactions; for ED50: read-out: ED50 (50% effective dose), analgesic; for inhibition in vivo at 2 mg/kg: 2 mg/kg oral; for inhibition in vivo at 4 mg/kg: 4 mg/kg oral; for inhibition in vivo at 8 mg/kg: 8 mg/kg oral; for percentage inhibition of pain reactions: mouse; for inhibition in vivo at 512 mg/kg: 512 mg/kg oral
Protocol: The products tested are administered orally to batches of 6 male mice (SPF1, OF1 strain) weighing 19-20 g.
1 hour later, 0.3 ml of a 0.02% strength solution of phenylbenzoquinone is injected intraperitoneally into each mouse and, from the 5th to the 10th minute after the latter treatment, the number of pain reactions (abdominal twistings) is counted.
Table V to VIII below give the percentage inhibition of these reactions.

[3] = Rattus norvegicus, po, 16 mg/kg oral, carraghenine, read-out: percentage reduction in the inflammation
[4] = Rattus norvegicus, po, carraghenine, read-out: percentage reduction in the inflammation
[5] = Rattus norvegicus, po, 64 mg/kg oral, carraghenine, read-out: percentage reduction in the inflammation
[6] = Rattus norvegicus, po, 128 mg/kg oral, carraghenine, read-out: percentage reduction in the inflammation
[7] = Rattus norvegicus, po, 256 mg/kg oral, carraghenine, read-out: percentage reduction in the inflammation
[8] = Rattus norvegicus, po, at the moment of greatest swelling of the controls

Row | SMILES | inhibition in vivo at 16 mg/kg [1, 3] [%] | inhibition in vivo at 32 mg/kg [1, 4] [%] | inhibition in vivo at 64 mg/kg [1, 5] [%] | inhibition in vivo at 128 mg/kg [1, 6] [%] | inhibition in vivo at 256 mg/kg [1, 7] [%] | ED50 [1, 8] [mg/kg] | inhibition in vivo at 32 mg/kg ([2]; 32 mg/kg oral) [%] | inhibition in vivo at 64 mg/kg ([2]; 64 mg/kg oral) [%] | inhibition in vivo at 128 mg/kg ([2]; 128 mg/kg oral) [%] | inhibition in vivo at 256 mg/kg ([2]; 256 mg/kg oral) [%] | ED50 [2] [mg/kg] | inhibition in vivo at 16 mg/kg ([2]; 16 mg/kg oral) [%] | further results
1 | CC1Cc2ccc(CCO)cc2C1 (stereo not drawn) [Example 35, β-[2-Methyl-indanyl-(5)]-ethanol] | 43 | 42 | 56 | 76 | 89 | 35 | 10 | 27 | 69 | 95 | 87 |  | 
2 | CC(CO)c1ccc2c(c1)CC(C(C)C)C2 (stereo not drawn) [Example 33, 2-Methyl-β-[2-isopropyl-indanyl-(5)]-ethanol] | 13 | 34 | 52 | 58 | 63 | 85 | 90 |  |  |  | 9 | 68 | inhibition in vivo at 8 mg/kg ([1]; Rattus norvegicus, po, 8 mg/kg oral, carraghenine, read-out: percentage reduction in the inflammation): 0%; inhibition in vivo at 2 mg/kg [2]: 6%; inhibition in vivo at 4 mg/kg [2]: 25%; inhibition in vivo at 8 mg/kg [2]: 42%
3 | CC1Cc2ccc(C(C)C(=O)OCCN3CCOCC3)cc2C1 (centres unmarked) [Example 22, Oxalate of the morpholino-ethyl ester of 2-methyl-[2-methyl-indanyl-(5)]-acetic acid] | 17 | 7 | 12 | 11 | 34 | 480 | 19 | 73 | 86 | 98 | 45 | 13 | inhibition in vivo at 512 mg/kg [1, 4]: 52%
4 | CC1(C)Cc2ccc(CC(=O)O)cc2C1 [Example 13, [2,2-Dimethyl-indanyl-(5)]-acetic acid] | 23 | 29 | 37 | 47 | 51 | 200 | 30 | 71 | 83 |  | 46 | 15 | 
5 | CC(C)C1Cc2ccc(CC(=O)O)cc2C1 (centres unmarked) [Example 4, [2-Isopropyl-indanyl-(5)]-acetic acid] |  | 10 | 19 | 47 | 80 | 120 | 33 | 70 | 99 |  | 40 | 6 | 
6 | CC(C(=O)OC(C)(C)CN(C)C)c1ccc2c(c1)CC(C(C)C)C2.O=C(O)/C=C\C(=O)O (stereo not drawn) [Example 29, Maleate of the dimethylamino-α-dimethyl-ethyl ester of 2-methyl-[2-isopropyl-indanyl-(5)]-acetic acid] |  |  |  |  |  |  |  |  |  |  |  |  | percentage reduction in the inflammation ([1]; 4 mg/kg oral, rat, carraghenine): 12%; percentage reduction in the inflammation ([1]; 16 mg/kg oral, rat, carraghenine): 35%; percentage reduction in the inflammation ([1]; 64 mg/kg oral, rat, carraghenine): 45%; percentage reduction in the inflammation ([1]; 128 mg/kg oral, rat, carraghenine): 72%; percentage reduction in the inflammation ([1]; 256 mg/kg oral, rat, carraghenine): 65%; ED50 (50% effective dose), anti-inflammatory ([1]; oral, rat, at the moment of greatest swelling of the controls): 55 mg/kg; percentage inhibition of pain reactions ([2]; 16 mg/kg oral): 8%; percentage inhibition of pain reactions ([2]; 32 mg/kg oral): 43%; percentage inhibition of pain reactions ([2]; 64 mg/kg oral): 57%; percentage inhibition of pain reactions ([2]; 128 mg/kg oral): 86%; percentage inhibition of pain reactions ([2]; 256 mg/kg oral): 96%
7 | O=C(O)Cc1ccc2c(c1)CC(C1CCCCC1)C2 (centres unmarked) [Example 11, [2-Cyclohexyl-indanyl-(5)]-acetic acid] |  | 4 | 8 | 13 | 13 | > 512 | 15 | 29 | 58 | 59 | 140 |  | inhibition in vivo at 512 mg/kg [1, 4]: 32%; inhibition in vivo at 512 mg/kg [2]: 83%
8 | CCC1Cc2ccc(C(C)C(=O)O)cc2C1 (centres unmarked) [Example 18, 2-Methyl-[2-ethyl-indanyl-(5)]-acetic acid] | 31 | 54 | 61 | 66 | 77 | 36 | 95 |  |  |  | 6.5 | 75 | inhibition in vivo at 2 mg/kg [2]: 18%; inhibition in vivo at 4 mg/kg [2]: 27%; inhibition in vivo at 8 mg/kg [2]: 58%
9 | CC(C)C1Cc2ccc(CC(=O)OCCN3CCOCC3)cc2C1 (centres unmarked) [Example 8, Hydrochloride of the morpholino-ethyl ester of [2-isopropyl-indanyl-(5)]-acetic acid] |  | 17 | 23 | 52 | 62 | 150 | 10 | 67 | 73 | 90 | 70 |  | 
10 | CC1Cc2ccc(CC(=O)OCCN3CCOCC3)cc2C1 (centres unmarked) [Example 21, Hydrochloride of the morpholino-ethyl ester of [2-methyl-indanyl-(5)]-acetic acid] |  | 17 | 25 | 52 | 68 | 130 |  | 2 | 51 | 71 | 200 |  | inhibition in vivo at 512 mg/kg [2]: 81%
11 | CC(C)C1Cc2ccc(CCO)cc2C1 (stereo not drawn) [Example 37, β-[2-Isopropyl-indanyl-(5)]-ethanol] | 0 | 1 | 21 | 41 | 30 | > 256 | 40 | 55 | 62 | 81 | 60 | 0 | 

Reference: patent US4182896A, “Indane derivatives” (Societe Hexachimie, priority 1974, dated 1980)
